Source: the supplement of paper PMC12463676, “Small-molecule dissolution of stress granules by redox modulation benefits ALS models” (Nature Chemical Biology, 2025)

Key:
[1] = compound: O=[As]([O-])(O)O.[K+] [potassium arsenate]; assay: thermal stability z-score vs DMSO; higher = more thermally stabilized by treatment; conditions: HeLa; arsenate concentration 1 mM
Experimental: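 Cellular thermal proteome profiling in HeLa cells treated with 1 mM arsenate for 1 h (DMSO pretreatment), heated to ten temperatures (37-66.3 °C). Soluble protein was quantified by TMT mass spectrometry relative to DMSO controls; the thermal stability score was transformed to a z-score; mean of n = 3 experiments.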

[2] = compound: NC(=O)CCCCC1CCSS1 [lipoamide]; assay: as above; conditions: HeLa, lipoamide concentration 100 µM
Experimental: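 Cellular thermal proteome profiling in HeLa cells. Cells were treated with 100 µM lipoamide for 1 h, with or without 1 mM arsenate for a further 1 h, then heated to ten temperatures (37-66.3 °C), and soluble protein was quantified by TMT mass spectrometry relative to 0.1% DMSO controls. The thermal stability score (sum of log2 fold changes minus the abundance score) was transformed to a z-score; mean of n = 3 experiments.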

[3] = arsenate co-treatment: 1 mM arsenate 1 h
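Note: each temperature applied for 3 min, abundance score taken as mean log2 fold change at the two lowest temperatures, z-score obtained by mean subtraction and division by SD.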

UniProt O15084, sequence (O15084 whole entry): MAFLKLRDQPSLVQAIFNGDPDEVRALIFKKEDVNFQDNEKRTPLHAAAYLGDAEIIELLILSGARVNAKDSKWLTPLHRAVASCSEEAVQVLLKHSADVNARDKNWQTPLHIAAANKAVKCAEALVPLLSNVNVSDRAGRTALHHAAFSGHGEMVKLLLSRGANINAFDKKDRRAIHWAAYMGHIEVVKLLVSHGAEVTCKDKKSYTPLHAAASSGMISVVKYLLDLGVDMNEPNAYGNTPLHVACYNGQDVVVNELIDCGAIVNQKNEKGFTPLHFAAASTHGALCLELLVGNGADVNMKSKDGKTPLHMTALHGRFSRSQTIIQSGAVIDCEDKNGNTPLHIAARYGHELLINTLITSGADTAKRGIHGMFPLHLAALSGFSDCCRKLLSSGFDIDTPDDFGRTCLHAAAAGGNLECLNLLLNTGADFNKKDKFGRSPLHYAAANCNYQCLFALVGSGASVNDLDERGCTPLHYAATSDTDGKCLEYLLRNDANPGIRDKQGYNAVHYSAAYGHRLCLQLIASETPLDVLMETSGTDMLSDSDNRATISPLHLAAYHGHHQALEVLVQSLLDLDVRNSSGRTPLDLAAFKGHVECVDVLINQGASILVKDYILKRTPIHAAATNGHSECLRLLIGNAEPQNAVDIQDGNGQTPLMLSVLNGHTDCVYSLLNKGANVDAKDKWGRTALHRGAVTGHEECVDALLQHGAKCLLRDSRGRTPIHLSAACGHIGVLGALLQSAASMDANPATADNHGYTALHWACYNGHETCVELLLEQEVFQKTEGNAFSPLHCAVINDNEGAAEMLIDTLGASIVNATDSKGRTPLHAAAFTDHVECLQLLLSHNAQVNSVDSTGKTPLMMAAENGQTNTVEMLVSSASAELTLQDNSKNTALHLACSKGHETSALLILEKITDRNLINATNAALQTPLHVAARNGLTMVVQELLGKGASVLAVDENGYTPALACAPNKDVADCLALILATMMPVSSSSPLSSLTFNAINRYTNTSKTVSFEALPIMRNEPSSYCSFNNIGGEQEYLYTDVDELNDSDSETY
UniProt Q14061, sequence (Q14061 whole entry): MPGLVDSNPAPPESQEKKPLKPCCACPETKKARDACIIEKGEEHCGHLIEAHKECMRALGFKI
UniProt Q9H7C9, sequence (Q9H7C9 whole entry): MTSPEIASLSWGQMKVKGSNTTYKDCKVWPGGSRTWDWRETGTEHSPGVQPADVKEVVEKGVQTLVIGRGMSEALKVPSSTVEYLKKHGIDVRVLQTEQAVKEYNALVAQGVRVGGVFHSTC
UniProt O94916, sequence (O94916 whole entry): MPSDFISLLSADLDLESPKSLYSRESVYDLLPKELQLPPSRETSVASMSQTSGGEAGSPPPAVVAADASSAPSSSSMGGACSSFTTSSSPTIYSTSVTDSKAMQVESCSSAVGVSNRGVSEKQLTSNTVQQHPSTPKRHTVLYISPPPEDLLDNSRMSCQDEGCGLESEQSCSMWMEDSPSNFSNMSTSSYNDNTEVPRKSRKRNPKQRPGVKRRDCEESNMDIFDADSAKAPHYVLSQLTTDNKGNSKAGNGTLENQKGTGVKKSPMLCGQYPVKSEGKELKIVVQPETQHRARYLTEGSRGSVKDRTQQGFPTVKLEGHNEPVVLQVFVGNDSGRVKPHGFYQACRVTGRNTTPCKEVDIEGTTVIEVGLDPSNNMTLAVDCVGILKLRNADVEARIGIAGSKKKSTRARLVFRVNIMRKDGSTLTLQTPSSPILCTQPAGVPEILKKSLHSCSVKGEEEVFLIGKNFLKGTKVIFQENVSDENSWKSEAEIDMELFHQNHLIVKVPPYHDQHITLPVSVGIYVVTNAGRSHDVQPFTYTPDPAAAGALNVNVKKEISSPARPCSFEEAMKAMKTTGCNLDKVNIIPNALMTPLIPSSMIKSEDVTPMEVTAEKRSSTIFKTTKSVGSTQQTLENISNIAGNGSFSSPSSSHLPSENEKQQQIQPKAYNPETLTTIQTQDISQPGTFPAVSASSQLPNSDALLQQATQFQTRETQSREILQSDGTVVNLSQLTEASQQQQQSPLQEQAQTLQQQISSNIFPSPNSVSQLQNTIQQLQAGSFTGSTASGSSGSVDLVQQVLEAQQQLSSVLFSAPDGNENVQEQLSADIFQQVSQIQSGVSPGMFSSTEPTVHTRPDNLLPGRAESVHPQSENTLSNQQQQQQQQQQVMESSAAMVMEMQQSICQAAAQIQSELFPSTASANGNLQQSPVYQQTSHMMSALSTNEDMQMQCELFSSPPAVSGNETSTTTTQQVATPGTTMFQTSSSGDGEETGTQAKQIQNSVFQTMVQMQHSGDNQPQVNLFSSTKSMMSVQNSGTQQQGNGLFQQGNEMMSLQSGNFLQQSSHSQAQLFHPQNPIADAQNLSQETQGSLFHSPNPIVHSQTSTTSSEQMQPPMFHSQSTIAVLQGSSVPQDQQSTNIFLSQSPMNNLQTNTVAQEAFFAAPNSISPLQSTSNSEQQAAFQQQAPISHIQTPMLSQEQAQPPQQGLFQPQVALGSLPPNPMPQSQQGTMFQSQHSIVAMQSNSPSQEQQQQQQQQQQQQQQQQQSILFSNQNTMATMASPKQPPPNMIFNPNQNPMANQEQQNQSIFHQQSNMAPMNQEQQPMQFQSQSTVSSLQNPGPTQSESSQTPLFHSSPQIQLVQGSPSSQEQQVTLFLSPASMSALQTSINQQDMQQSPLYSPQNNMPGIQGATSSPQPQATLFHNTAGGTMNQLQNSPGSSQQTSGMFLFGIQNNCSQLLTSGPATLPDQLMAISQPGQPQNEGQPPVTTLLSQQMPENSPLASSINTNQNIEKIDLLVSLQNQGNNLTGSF
UniProt P10412, sequence (P10412 whole entry): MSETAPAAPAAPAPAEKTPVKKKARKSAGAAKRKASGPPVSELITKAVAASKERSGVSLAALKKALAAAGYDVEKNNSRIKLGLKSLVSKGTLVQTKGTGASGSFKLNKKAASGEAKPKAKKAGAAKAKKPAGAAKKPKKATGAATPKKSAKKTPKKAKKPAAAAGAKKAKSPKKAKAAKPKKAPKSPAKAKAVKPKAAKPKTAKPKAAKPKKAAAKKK
UniProt Q9UEY8, sequence (Q9UEY8 whole entry): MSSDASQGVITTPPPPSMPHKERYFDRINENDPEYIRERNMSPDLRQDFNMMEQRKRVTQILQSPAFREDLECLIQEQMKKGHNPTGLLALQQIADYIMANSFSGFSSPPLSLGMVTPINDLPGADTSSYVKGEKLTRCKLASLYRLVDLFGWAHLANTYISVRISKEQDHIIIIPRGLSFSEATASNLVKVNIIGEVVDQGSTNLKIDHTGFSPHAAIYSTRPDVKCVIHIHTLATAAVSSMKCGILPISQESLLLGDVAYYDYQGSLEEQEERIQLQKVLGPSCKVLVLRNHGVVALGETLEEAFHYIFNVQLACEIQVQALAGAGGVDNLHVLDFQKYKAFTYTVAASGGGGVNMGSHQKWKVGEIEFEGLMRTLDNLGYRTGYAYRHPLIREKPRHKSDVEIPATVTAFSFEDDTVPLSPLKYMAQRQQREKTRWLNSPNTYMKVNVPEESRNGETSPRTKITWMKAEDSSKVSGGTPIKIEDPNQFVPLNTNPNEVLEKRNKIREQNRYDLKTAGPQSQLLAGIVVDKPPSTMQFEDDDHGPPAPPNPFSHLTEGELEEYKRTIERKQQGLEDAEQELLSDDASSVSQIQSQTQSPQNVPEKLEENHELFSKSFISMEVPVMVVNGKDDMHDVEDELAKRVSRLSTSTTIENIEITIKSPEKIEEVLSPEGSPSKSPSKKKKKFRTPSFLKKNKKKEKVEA
UniProt O00418, sequence (O00418 whole entry): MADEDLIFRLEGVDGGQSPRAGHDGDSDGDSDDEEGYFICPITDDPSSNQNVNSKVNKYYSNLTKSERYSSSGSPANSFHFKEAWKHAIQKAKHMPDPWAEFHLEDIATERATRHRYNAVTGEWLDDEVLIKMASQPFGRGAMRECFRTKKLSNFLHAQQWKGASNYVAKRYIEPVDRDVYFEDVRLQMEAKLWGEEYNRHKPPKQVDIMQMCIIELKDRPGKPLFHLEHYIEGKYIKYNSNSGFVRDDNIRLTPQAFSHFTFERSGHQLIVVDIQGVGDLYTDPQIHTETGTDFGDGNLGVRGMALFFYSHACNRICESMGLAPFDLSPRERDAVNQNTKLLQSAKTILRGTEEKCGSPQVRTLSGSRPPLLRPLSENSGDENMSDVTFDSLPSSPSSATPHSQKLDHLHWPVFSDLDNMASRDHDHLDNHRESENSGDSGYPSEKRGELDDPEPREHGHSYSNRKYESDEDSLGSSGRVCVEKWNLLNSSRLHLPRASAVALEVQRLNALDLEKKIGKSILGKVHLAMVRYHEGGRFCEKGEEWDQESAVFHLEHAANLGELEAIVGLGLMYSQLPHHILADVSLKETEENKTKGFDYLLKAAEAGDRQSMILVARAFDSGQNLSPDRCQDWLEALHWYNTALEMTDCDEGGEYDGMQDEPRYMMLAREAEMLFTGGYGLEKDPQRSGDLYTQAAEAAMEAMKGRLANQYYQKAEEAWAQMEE
UniProt O14494, sequence (O14494 whole entry): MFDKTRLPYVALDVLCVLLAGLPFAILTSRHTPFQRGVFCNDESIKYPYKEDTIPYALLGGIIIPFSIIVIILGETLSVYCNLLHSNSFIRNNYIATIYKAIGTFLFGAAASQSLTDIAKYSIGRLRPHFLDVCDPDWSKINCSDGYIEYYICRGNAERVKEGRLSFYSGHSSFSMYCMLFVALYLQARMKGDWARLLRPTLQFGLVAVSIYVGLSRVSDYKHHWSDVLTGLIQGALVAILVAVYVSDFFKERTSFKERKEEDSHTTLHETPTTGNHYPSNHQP
UniProt Q99807, sequence (Q99807 whole entry): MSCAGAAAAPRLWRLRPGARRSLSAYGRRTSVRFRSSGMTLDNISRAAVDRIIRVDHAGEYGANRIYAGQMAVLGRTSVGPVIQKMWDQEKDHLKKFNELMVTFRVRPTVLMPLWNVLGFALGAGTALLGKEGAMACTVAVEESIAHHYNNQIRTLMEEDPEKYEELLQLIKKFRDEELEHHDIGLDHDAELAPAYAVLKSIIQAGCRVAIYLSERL

Target	thermal stability z-score [1]	thermal stability z-score [2, 3]	thermal stability z-score ([2]; arsenate co-treatment: none)
FHOD1 (UniProt Q9Y613)	0.2	-0.261	-0.0798
HIST1H1E (UniProt P10412)	0.618	0.132	0.627
MSH2 (UniProt P43246)	-0.565	-0.271	-0.178
RANBP2 (UniProt P49792)	1.49	-0.733	-0.425
PUS7 (UniProt Q96PZ0)	0.651	-0.447	0.26
ENPEP (UniProt Q07075)	-0.0304	0.281	0.407
NOL3 (UniProt O60936)	0.236	0.615	0.549
GABPA (UniProt Q06546)	4.54	-0.201	-0.185
RTCB (UniProt Q9Y3I0)	-1.21	0.445	0.0607
NFAT5 (UniProt O94916)	1.37	0.48	0.0594
INPP1 (UniProt P49441)	-1.9	-1.52	-1.35
PPIH (UniProt O43447)	-0.183	0.218	-0.34
APTX (UniProt Q7Z2E3)	-0.253	0.0235	0.0974
MME (UniProt P08473)	0.585	-0.46	-1.37
TYMS (UniProt P04818)	14	1.42	0.818
WBSCR22 (UniProt O43709)	-0.902	-0.223	-0.46
NUFIP2 (UniProt Q7Z417)	1.08	0.354	0.487
IMPDH1 (UniProt P20839)	1.28	-0.546	-0.319
GNPTAB (UniProt Q3T906)	-0.467	-2.42	-1.66
PDE2A (UniProt O00408)	-0.355	-0.284	0.382
ATP13A3 (UniProt Q9H7F0)	0.165	-0.563	0.206
CCT8 (UniProt P50990)	-0.245	-0.0223	-0.0937
TMEM209 (UniProt Q96SK2)	1.25	-0.644	0.109
MAP2K2 (UniProt P36507)	0.0169	-0.441	-0.022

Target	thermal stability z-score [1]	thermal stability z-score [2, 3]	thermal stability z-score ([2]; arsenate co-treatment: none)
MRE11A (UniProt P49959)	-0.619	0.729	0.164
FNBP4 (UniProt Q8N3X1)	-0.51	0.826	1.2
SLC11A2 (UniProt P49281)	0.512	-1.6	-0.179
LYPLA2 (UniProt O95372)	0.209	0.141	0.194
EIF4B (UniProt P23588)	0.032	0.102	0.429
TEAD1 (UniProt P28347)	-0.00363	0.133	0.196
RABGEF1 (UniProt Q9UJ41)	-0.113	-0.0343	-0.0874
DNAJC12 (UniProt Q9UKB3)	-0.108	-0.279	-0.182
RCN2 (UniProt Q14257)	0.788	-3.71	-2.81
AAMDC (UniProt Q9H7C9)	0.207	1.03	0.608
PLPP1 (UniProt O14494)	0.324	-0.53	0.262
COQ7 (UniProt Q99807)	0.227	-0.0244	0.331
HYPK (UniProt Q9NX55)	-0.114	0.716	0.592
CAPN2 (UniProt P17655)	0.109	0.345	0.208
GSK3B (UniProt P49841)	0.326	-0.109	-0.308
AGFG2 (UniProt O95081)	-0.791	-0.423	-0.0283
MRPL53 (UniProt Q96EL3)	0.0397	0.75	-0.432
ANKRD28 (UniProt O15084)	-0.209	-0.25	-0.0938
ADD3 (UniProt Q9UEY8)	-0.362	-0.112	0.162
SNCG (UniProt O76070)	0.0455	1.49	0.999
NCBP2 (UniProt P52298)	-0.0118	0.782	0.577
SPECC1L (UniProt Q69YQ0)	1.47	1.12	1.43
H2AFZ|H2AFV	-1.63	1.28	1.33
TTPAL (UniProt Q9BTX7)	0.594	0.0476	0.0717

Target	thermal stability z-score [1]	thermal stability z-score [2, 3]	thermal stability z-score ([2]; arsenate co-treatment: none)
ALAS1 (UniProt P13196)	-0.0697	0.0114	-0.0767
WIPI2 (UniProt Q9Y4P8)	-0.0998	0.0343	0.463
PLIN3 (UniProt O60664)	0.704	0.559	0.461
AGAP1 (UniProt Q9UPQ3)	-1.91	-1.59	-2.08
RTCA (UniProt O00442)	-0.695	0.213	0.21
RNF187 (UniProt Q5TA31)	-0.503	-0.474	-1.96
PRDX4 (UniProt Q13162)	0.674	0.155	0.76
PSMD2 (UniProt Q13200)	-0.333	-0.29	-0.343
NGRN (UniProt Q9NPE2)	-0.378	0.637	0.0666
SF3B2 (UniProt Q13435)	-0.135	0.498	0.403
CSTF2T (UniProt Q9H0L4)	0.141	0.0672	-0.0883
COX17 (UniProt Q14061)	-2.23	-0.762	-2.24
DHX36 (UniProt Q9H2U1)	-0.0639	-0.0301	-0.0965
MRPS2 (UniProt Q9Y399)	0.591	0.15	0.188
KLHDC3 (UniProt Q9BQ90)	1.05	0.45	-0.351
DNAJC15 (UniProt Q9Y5T4)	-0.793	0.824	0.507
CLIC4 (UniProt Q9Y696)	-0.572	0.264	0.427
PPP3CA (UniProt Q08209)	0.275	1.25	0.912
GALNT1 (UniProt Q10472)	-0.187	-0.568	-0.256
EEF2K (UniProt O00418)	-0.0657	-0.0522	-0.0721
TLE3 (UniProt Q04726)	-0.674	0.171	0.329
CKMT1A (UniProt P12532)	0.795	0.957	0.965
AFG3L2 (UniProt Q9Y4W6)	-0.123	-0.688	-0.0469
